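How tested: cells in 96-well plates exposed to compound for 48 hours at five concentrations. GI50 marks 50% less growth.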 Calls of active or inactive are those of the source. No stated cut-off is given here; in the data, active = GI50 up to about 1.1 µM and inactive = higher.
Experiments:
Test in all cases: NCI anticancer screen, dose series, 48 h
A498 = test system: A498
ACHN = test system: ACHN
DU-145 = test system: DU-145
HL-60 = test system: HL-60
HOP-92 = test system: HOP-92
HT-29 = test system: HT-29
KM12 = test system: KM12
MOLT-4 = test system: MOLT-4
NCI/ADR-RES = test system: NCI/ADR-RES
OVCAR-3 = test system: OVCAR-3
OVCAR-4 = test system: OVCAR-4
RXF 393 = test system: RXF 393
SF-268 = test system: SF-268
SK-MEL-5 = test system: SK-MEL-5
SNB-75 = test system: SNB-75
SW-620 = test system: SW-620
T47D = test system: T47D
TK-10 = test system: TK-10
U-251 = test system: U-251
UO-31 = test system: UO-31

Measured: GI50

CC1(C)NC2C(=O)c3c([nH]c4ccccc34)[C@]3(C)CCC1CC23 (some centres not stated)
inactive: A498 > 100 µM | ACHN > 100 µM | DU-145 > 100 µM | HL-60 > 100 µM | HOP-92 61.7 µM | HT-29 94.8 µM | KM12 > 100 µM | MOLT-4 59.4 µM | NCI/ADR-RES > 100 µM | OVCAR-3 > 100 µM | OVCAR-4 60.8 µM | RXF 393 > 100 µM | SF-268 > 100 µM | SK-MEL-5 > 100 µM | SNB-75 > 100 µM | SW-620 > 100 µM | T47D 21.6 µM | TK-10 > 100 µM | U-251 > 100 µM | UO-31 > 100 µM

CCOC(=O)OC1(c2ccccc2)CCN(C)CC1
inactive: A498 > 100 µM | ACHN > 100 µM | DU-145 > 100 µM | HL-60 > 100 µM | HOP-92 > 100 µM | HT-29 > 100 µM | KM12 > 100 µM | MOLT-4 > 100 µM | NCI/ADR-RES > 100 µM | OVCAR-3 > 100 µM | OVCAR-4 > 100 µM | RXF 393 > 100 µM | SF-268 > 100 µM | SK-MEL-5 > 100 µM | SNB-75 > 100 µM | SW-620 > 100 µM | T47D > 100 µM | TK-10 > 100 µM | U-251 > 100 µM | UO-31 > 100 µM

CO/C(N)=C(C#N)/N=C/c1cccs1
inactive: A498 33.2 µM | ACHN > 100 µM | DU-145 > 100 µM | HL-60 22 µM | HOP-92 > 100 µM | HT-29 25.9 µM | KM12 > 100 µM | MOLT-4 62.8 µM | NCI/ADR-RES 98.2 µM | OVCAR-3 49.8 µM | OVCAR-4 > 100 µM | RXF 393 > 100 µM | SF-268 > 100 µM | SK-MEL-5 39.4 µM | SNB-75 73.5 µM | SW-620 68.1 µM | T47D 76.6 µM | TK-10 > 100 µM | U-251 74 µM | UO-31 > 100 µM

O=C1CSC2=NC3=C(COC/C3=C\c3ccc(Br)cc3)C(c3ccc(Br)cc3)N12 (configuration not stated)
inactive: A498 > 100 µM | ACHN 82.8 µM | DU-145 > 100 µM | HL-60 12.9 µM | HOP-92 > 100 µM | KM12 29.1 µM | MOLT-4 15.2 µM | NCI/ADR-RES 31.8 µM | OVCAR-3 61 µM | OVCAR-4 > 100 µM | RXF 393 37.8 µM | SF-268 > 100 µM | SK-MEL-5 96.4 µM | SNB-75 70.5 µM | SW-620 52.4 µM | T47D 53.2 µM | TK-10 97.9 µM | U-251 66.5 µM | UO-31 35.3 µM

CN1CCN(CCCBr)CC1
inactive: A498 > 100 µM | ACHN > 100 µM | DU-145 > 100 µM | HL-60 > 100 µM | HOP-92 > 100 µM | HT-29 > 100 µM | KM12 > 100 µM | NCI/ADR-RES > 100 µM | OVCAR-3 > 100 µM | OVCAR-4 > 100 µM | RXF 393 > 100 µM | SF-268 > 100 µM | SK-MEL-5 > 100 µM | SNB-75 > 100 µM | SW-620 > 100 µM | T47D > 100 µM | TK-10 > 100 µM | U-251 > 100 µM | UO-31 > 100 µM

COc1ccccc1/C=C/C1=NN(c2cccc(S(=O)(=O)O)c2)C2(C1)SCC(=O)N2c1nc2ccccc2s1 (configuration not stated)
inactive: A498 83.4 µM | ACHN 55.7 µM | DU-145 89.7 µM | HL-60 50.2 µM | HOP-92 23.3 µM | HT-29 97.9 µM | KM12 41.1 µM | MOLT-4 36.7 µM | NCI/ADR-RES > 100 µM | OVCAR-4 86.7 µM | RXF 393 > 100 µM | SF-268 > 100 µM | SK-MEL-5 64.4 µM | SNB-75 > 100 µM | SW-620 > 100 µM | T47D 20.4 µM | TK-10 84.3 µM | U-251 52.6 µM | UO-31 71.9 µM

From ChEMBL document CHEMBL1201862, “PubChem BioAssay data set” (2004)
